According to publication PMC9963684, “Meroterpenoids with Immunosuppressive Activity from Edible Fungus Craterellus odoratus” (Molecules, 2023):
≈ marks a conversion by molar mass, not a printed value. Peptide text beside a SMILES is read from it. * marks the point of attachment. Cbz = O=C(OCc1ccccc1)*

Legend:
[1] = Cytotoxicity assay (CCK-8) on spleen cells; format: cell-based; conditions: female, fresh spleen cells (splenic lymphocytes), BALB/c mouse spleen cells
Experimental: (§1) Female BALB/c mice were sacrificed by cervical dislocation, and the spleens were removed aseptically. Mononuclear cell suspensions were prepared after cell debris and clumps were removed. Erythrocytes were depleted with ammonium chloride buffer solution. Lymphocytes were washed and resuspended in RPMI-1640 medium supplemented with 10% FBS, penicillin (100 U/mL), and streptomycin ([…]).
Cytotoxicity was tested with Cell Counting Kit-8 (CCK-8) assay. Briefly, fresh spleen cells were gained from female BALB/c mice (18–20 g). Spleen cells (1 ×10^6 cells) were seeded in triplicate in 96-well flat plates, then cultured at 37 °C for 48 h in 96-well flat plates in the presence or absence of various concentrations of compounds, as well as in a humidified and 5% CO2-containing incubator. A certain amount of CCK-8 was added to each well at the final 8–10 h of culture. At the end of culturing, we measured the OD values with a microplate reader (Bio-Rad 650, Hercules, CA, USA) at 450 nm. […] The cytotoxicity of each compound was expressed as the concentration of compound that reduced cell viability to 50% (CC50).

[2] = test system: LPS-induced B-cell proliferation (spleen cells); experiment: LPS-induced B-cell proliferation ([3H]-thymidine uptake); format: cell-based; conditions: Mus musculus, spleen cells stimulated with 10 µg/mL LPS
Experimental: as §1
(§2) Fresh spleen cells were obtained from female BALB/c mice (18–20 g). The 5 × 10^5 spleen cells were cultured at the same conditions as those mentioned above. The cultures, in the presence or absence of various concentrations of compounds, were stimulated with 5 µg/mL of concanavalin A (ConA) or 10 µg/mL of lipopolysaccharide (LPS) to induce T-cells’ or B-cells’ proliferative responses, respectively. Proliferation was assessed in terms of uptake of [^3H]-thymidine during 8 h of pulsing with 25 µL/well of [^3H]-thymidine, and then cells were harvested onto glass fiber filters. The incorporated radioactivity was counted using a Beta scintillation counter (MicroBeta Trilux; PerkinElmer Life Sciences, Waltham, MA, USA). Cells treated without any stimuli were used as a negative control. The immunosuppressive activity of each compound was expressed as the concentration of compound that inhibited ConA-induced T-cell proliferation or LPS-induced B-cell proliferation to 50% (IC50) of the control value. […]

[3] = test system: ConA-induced T-cell proliferation (spleen cells); experiment: ConA-induced T-cell proliferation ([3H]-thymidine uptake); format: cell-based; conditions: Mus musculus, spleen cells stimulated with 5 µg/mL ConA
Experimental: as §1, §2

[4] = test system: human 11β-hydroxysteroid dehydrogenases (11β-HSD1); set-up: method as in PMID 19879607; conditions: cited from earlier work
[5] = test system: human 11β-HSD2; set-up: method as in PMID 19879607; conditions: cited from earlier work
[6] = test system: Bacillus cereus; set-up: method as in ref 17 = [17];  L.V. Levchenko S.V. O’Neill D.P. Advances in methods and algorithms in a modern quantum chemistry program; conditions: cited from earlier work
[7] = test system: Escherichia coli; set-up: L.V. Levchenko S.V. O’Neill D.P. Advances in methods and algorithms in a modern quantum chemistry program; conditions: cited from earlier work
[8] = test system: Staphylococcus aureus; set-up: method as in ref 17 =  L.V. Levchenko S.V. O’Neill D.P. Advances in methods and algorithms in a modern quantum chemistry program; conditions: cited from earlier work
[9] = test system: Micrococcus luteus; set-up: L.V. Levchenko S.V. O’Neill D.P. Advances in methods and algorithms in a modern quantum chemistry program; conditions: cited from earlier work
[10] = test system: NO production in LPS-activated RAW264.7 macrophages; experiment: Nitric oxide production in LPS-activated RAW264.7 macrophages; format: cell-based, murine; conditions: Mus musculus, positive control, 1 μg/mL LPS, 18 h
Experimental: Murine monocytic RAW264.7 macrophages were dispensed into 96-well plates (2 × 10^5 cells/well) containing RPMI-1640 medium (HyClone) with 10% FBS under a humidified atmosphere with 5% CO2 at 37 °C. After 24 h of preincubation, cells were treated with serial dilutions of the test compounds, up to a maximum concentration of 40 μM, in the presence of 1 μg/mL LPS for 18 h. The compounds were dissolved in DMSO and further diluted in the medium to produce different concentrations. NO production in each well was assessed by adding 100 μL of Griess reagent (reagent A and reagent B, Sigma, St. Louis, MO, USA) to 100 μL of each supernatant from the LPS-treated (Sigma) or LPS- and compound-treated cells in triplicate. After a 5 min incubation, the absorbance of samples was measured at 570 nm with a 2104 Envision multilabel plate reader (Perkin-Elmer Life Sciences, Inc., Boston, MA, USA).

[11] = test system: human embryonic kidney 293 cell; set-up: method as in PMID 26669092; conditions: read-out: IC50 against human embryonic kidney 293 cell; cited from earlier work

Row | Compound | CC50 at 48 h [1] [µM] | IC50 [2] [µM] | IC50 against human 11β-HSD1 [4] [µg/mL] | IC50 against human 11β-HSD2 [5] [µg/mL] | further results
1 | CC1=CCC2C(C)(C)CCCC2(C)C1CC12OC1C(=O)C(Cc1c(O)cc(CC(C)O)oc1=O)=CC2O (stereo not shown) [Compound 1, craterodoratin T] | > 40 | 5.52 ± 0.452 | – | – | –
2 | CC1=CC[C@H]2C(C)(C)CCC[C@]2(C)[C@H]1C[C@@]12O[C@@H]1[C@H](O)C(CO)=C[C@H]2O [Compound 3, craterellin A] | > 40 | 20 ± 1.38 | 9.1 (≈ 25.1 µM) | 1.5 (≈ 4.14 µM) | IC50 [3]: 9.07 ± 0.644 µM; MIC against Bacillus cereus [6]: 3.12 µM (≈ 1.13 µg/mL); MIC against Escherichia coli [7]: 6.25 µM (≈ 2.27 µg/mL); MIC against Staphylococcus aureus [8]: 6.25 µM (≈ 2.27 µg/mL); MIC against Micrococcus luteus [9]: 6.25 µM (≈ 2.27 µg/mL)
3 | CC(C)C[C@@H](C=O)NC(=O)[C@H](CC(C)C)NC(=O)[C@H](CC(C)C)NC(=O)OCc1ccccc1 [MG-132] (Cbz-Leu-Leu-Leu-aldehyde) | – | – | – | – | IC50 [10]: 0.2 µM
4 | CC1=CCC2C(C)(C)C(O)CCC2(C)C1CC12OC1C(O)C(CO)=CC2O (stereo not shown) [craterellin B] | – | – | 3.5 (≈ 9.25 µM) | – | –
5 | C=C1[C@@H](O)[C@H]2O[C@@]2(C[C@H]2C(C)=CC[C@H]3C(C)(C)CCC[C@]23C)[C@H](O)[C@H]1O [craterellin C] | – | – | 14.8 (≈ 40.8 µM) | 25.4 (≈ 70.1 µM) | IC50 [11]: 50.9 µM
